Laboratory results as given in publication PMC13598332, “Selective activation of tetrodotoxin-sensitive sodium channels by AaH-II drives arrhythmogenic late Na^+ current in the heart” (Europace, 2026).
Entries after “also recorded” stand apart in the source; their conditions may differ.

How the values were obtained:
[1] = system: human iPS-derived cardiomyocytes; assay: Automated patch-clamp of Na+ current in human iPS-derived cardiomyocytes; assay type: cell-based
Protocol: The control hiPSC cell line (ITXi002-A; IRX5-Wt[16]; RRID:CVCL_B5QD) was generated from primary dermal fibroblasts and previously characterized.[17–19] hiPSCs were maintained at 37°C, 5% CO2, 21% O2 in StemMacs PSC-Brew XF human medium (Miltenyi Biotec, #130-127-865) on culture plates coated with 0.05 mg/mL Matrigel hESC-Qualified Matrix (Corning, #354277) in DMEM F12 (Gibco, #11320033). At 75% confluency, the cells were passaged using the Gentle Cell Dissociation Reagent (StemCell Technologies, #07174).
We generated right ventricular-like cardioids on 96-well low-attachment plates using the Schmidt et al. (2023) protocol.[20] At D15.5, cardioids were pooled, dissociated, and replated as a monolayer in MW12 plates (Falcon, #353047) coated with Matrigel (Corning, #354277) for automated patch-clamp, and as single cells in 35-mm Petri dishes (NUNC #055055) coated with Matrigel for manual patch-clamp. Immediately before patch-clamp recording, cardiomyocytes were single-cell dissociated using Accutase (Sigma, #A6964).
For human iPSC-derived cardiomyocytes recordings, cells were resuspended at 300 000 cells/mL in a solution composed of 50% culture media and 50% extracellular buffer containing (in mM) 140 NaCl, 4 KCl, 2 CaCl2, 1 MgCl2, 5 glucose, and 10 HEPES (pH 7.4, osmolarity 298 mOsm) supplemented with 5 µM nifedipine. Single-hole, low-resistance chips (3–5 MΩ) were used. The intracellular solution contained (in mM) 10 KCl, 110 KF, 10 NaCl, 1 MgCl2, 1 CaCl2, 10 Ethylene Glycol Tetra-acetic Acid (EGTA), and 10 HEPES (pH 7.2, osmolarity 280 mOsm). Currents were recorded and analysed as previously described for stable cell lines.

Wistar-Han rats = assay type: in vivo, rat; settings: rat, in vivo, iv
isolated rat heart = assay: Ex vivo cardiac electrophysiological recordings (Langendorff, MEA)
Protocol: Eleven-week-old Wistar-Han rats were first heparinized (heparin sodium, 0.5 U/g i.p.) and then euthanized by i.p. injection of 140 mg/kg pentobarbital (Euthasol®). Hearts were quickly excised and immersed in a cold modified Krebs-Henseleit solution (in mM): 116 NaCl, 5 KCl, 1.1 MgSO4, 7 H2O, 0.35 NaH2PO4, 27 NaHCO3, 10 glucose, and pH 7.4. The aorta was cannulated, and the hearts were perfused on a Langendorff system with warm (36.5–37.5°C) and oxygenated (95% O2/5% CO2) Krebs-Henseleit solution supplemented with 1.8 mM CaCl2, 1 mM lactate, and 0.2 mM pyruvate (control solution) at a constant flow rate of 12 mL/min. Once connected to the Langendorff perfusion system, hearts were perfused with control solution for 10 min to stabilize their activities. Electrical activity of the upper part of the right ventricle was assessed using a 64-electrode array (0.2-mm electrode diameter; 0.36-mm interelectrode distance) connected to an EMS64-USB-1002 amplifier. Single-lead ECG was acquired to monitor global cardiac electrical activity. Data were sampled at 10 kHz per channel and acquired by EMapRecord5 (Mappinglab, Oxford, UK). Data were obtained at baseline (2 min before compound perfusion) and during AaH-II* perfusion for 10 min at various concentrations. Data were analysed using EMapScope5 (Mappinglab, Oxford, UK). Activation times were determined as the point of maximal negative slope. All activation times were related to the timing of the first detected waveform and then used to draw activation maps. An average of three complexes was used for activation time and conduction velocity analyses, while interbeat interval was measured as the average of 10 consecutive intervals. The index of inhomogeneity was calculated as previously described.[23] Arrhythmias were quantified over a period of 2 min in control and after peptide perfusion.

hNav1.6 = hNav1.6 (Homo sapiens, UniProt Q9UQD0); assay type: cell-based
[2] = system: adult rat ventricular cardiomyocytes; assay: Calcium imaging (SCR events) in isolated rat cardiomyocytes; assay type: cell-based
Protocol: Eleven-week-old Wistar Han rats were euthanized by intraperitoneal (i.p.) injection of a lethal dose of pentobarbital (140 mg/kg, Euthasol®). Subsequently, the hearts were quickly excised and rinsed in cold calcium-free Tyrode solution with the following composition (in mM): 118 NaCl, 4.17 KCl, 1.2 MgSO4, 1.2 KH2PO4, 21 NaHCO3, 11 glucose, and 5 taurine, at pH 7.4. The aorta was promptly cannulated, and the hearts were perfused in a retrograde fashion with warm (37–38°C) Tyrode containing 1.25 mM CaCl2 to flush the coronary arteries of blood and then with a Tyrode solution supplemented with 1 mg/mL collagenase type 2 (Worthington Biochemical Corp, Lakewood, NJ) and 0.2 U.mL^−1 protease type XIV (Sigma, Poole, UK) during 15–20 min. Once enzymatic digestion is completed, ventricles were shredded into small pieces with surgical scissors in 0.5 mM Ca^2+ Tyrode solution, filtered through a 200-µm mesh, and then resuspended in 1 mM Ca^2+ Tyrode solution for 1 h at RT. Isolated cardiomyocytes were incubated in the dark with Fura-2-AM calcium probe (2 µM in 20% v/v DMSO; Life Technologies) for 15 min. Cardiomyocytes were then loaded onto the IonOptix system (IonOptix Corporation, U.S.A.) and perfused with warm (37°C) Tyrode solution. Cardiomyocytes were stimulated at 0.5 Hz using a MyoPacer field stimulator (20 V, 7 ms) to achieve steady state. Fura-2 fluorescence (F) at 510 nm was used to measure cytoplasmic Ca^2+ concentration variation by exciting with UV light at 340 and 380 nm. Cells were paced for 1 to 2 min, ensuring stabilization of the signals, and the effects of the peptides were measured at the end of a 5 min application time. 30-s-long periods were used as the unit duration (representing 15 Ca^2+ transients) during control and after the perfusion of the compound to count the number of arrhythmogenic transients.

[3] = rat, in vivo, iv
[4] = system: adult rat ventricular myocytes; assay type: cell-based

hNav1.6, sequence (Q9UQD0 other isoform, or with tags, fused parts or gaps): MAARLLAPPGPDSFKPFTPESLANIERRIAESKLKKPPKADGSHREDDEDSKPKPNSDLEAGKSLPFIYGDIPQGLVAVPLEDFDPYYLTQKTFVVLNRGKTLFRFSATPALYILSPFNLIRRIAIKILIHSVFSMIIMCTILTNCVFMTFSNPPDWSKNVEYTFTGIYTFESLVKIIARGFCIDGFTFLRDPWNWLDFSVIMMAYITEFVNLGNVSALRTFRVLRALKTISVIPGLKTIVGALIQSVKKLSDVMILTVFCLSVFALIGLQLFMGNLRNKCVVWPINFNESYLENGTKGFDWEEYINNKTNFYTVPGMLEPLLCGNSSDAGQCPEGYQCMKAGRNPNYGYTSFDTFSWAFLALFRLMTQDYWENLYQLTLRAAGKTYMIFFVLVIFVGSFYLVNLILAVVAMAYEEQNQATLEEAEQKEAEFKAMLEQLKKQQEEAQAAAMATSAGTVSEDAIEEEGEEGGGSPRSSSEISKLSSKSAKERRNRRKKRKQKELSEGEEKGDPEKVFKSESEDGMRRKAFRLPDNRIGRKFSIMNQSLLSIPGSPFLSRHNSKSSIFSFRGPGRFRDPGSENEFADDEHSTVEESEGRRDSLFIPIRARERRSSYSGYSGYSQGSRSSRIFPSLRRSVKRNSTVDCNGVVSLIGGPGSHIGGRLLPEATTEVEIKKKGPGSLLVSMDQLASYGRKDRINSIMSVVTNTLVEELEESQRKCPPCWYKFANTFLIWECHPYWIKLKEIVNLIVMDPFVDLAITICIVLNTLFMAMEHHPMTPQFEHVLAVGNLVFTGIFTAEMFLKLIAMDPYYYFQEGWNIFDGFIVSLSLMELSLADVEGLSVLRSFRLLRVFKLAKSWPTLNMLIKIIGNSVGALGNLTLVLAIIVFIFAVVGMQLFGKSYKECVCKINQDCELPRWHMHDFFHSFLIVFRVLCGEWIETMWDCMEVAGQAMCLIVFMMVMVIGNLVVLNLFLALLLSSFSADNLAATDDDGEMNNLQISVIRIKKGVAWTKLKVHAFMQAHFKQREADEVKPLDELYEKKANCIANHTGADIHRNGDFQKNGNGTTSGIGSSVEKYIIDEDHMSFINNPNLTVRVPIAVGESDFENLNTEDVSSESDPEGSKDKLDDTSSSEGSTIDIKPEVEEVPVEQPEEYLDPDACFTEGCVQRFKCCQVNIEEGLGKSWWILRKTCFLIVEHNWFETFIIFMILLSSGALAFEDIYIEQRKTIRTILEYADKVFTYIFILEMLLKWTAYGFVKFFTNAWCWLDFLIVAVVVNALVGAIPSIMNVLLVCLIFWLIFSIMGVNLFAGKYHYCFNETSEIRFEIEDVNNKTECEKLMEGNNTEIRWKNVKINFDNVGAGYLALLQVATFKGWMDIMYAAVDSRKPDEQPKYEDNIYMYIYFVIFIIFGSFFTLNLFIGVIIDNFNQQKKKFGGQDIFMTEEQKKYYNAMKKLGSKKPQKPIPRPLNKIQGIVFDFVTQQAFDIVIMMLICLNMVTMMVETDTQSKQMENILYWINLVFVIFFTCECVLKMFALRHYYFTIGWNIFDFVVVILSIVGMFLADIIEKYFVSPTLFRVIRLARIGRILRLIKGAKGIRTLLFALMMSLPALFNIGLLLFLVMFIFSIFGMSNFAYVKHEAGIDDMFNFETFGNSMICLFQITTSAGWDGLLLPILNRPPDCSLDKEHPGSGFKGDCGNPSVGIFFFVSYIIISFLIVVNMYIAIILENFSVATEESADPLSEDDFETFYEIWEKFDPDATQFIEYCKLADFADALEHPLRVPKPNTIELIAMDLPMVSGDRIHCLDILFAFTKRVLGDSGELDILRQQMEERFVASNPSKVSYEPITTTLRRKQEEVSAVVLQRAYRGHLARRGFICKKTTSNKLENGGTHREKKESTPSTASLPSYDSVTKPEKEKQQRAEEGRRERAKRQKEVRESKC

## NC1=N[C@H](O)[C@H]2[C@H]3O[C@]4(O)O[C@@H]([C@@H](O)[C@@]2(N1)[C@@H]4O)[C@]3(O)CO [TTX, tetrodotoxin]
[1]
  block of AaH-II*-triggered INaL: entirely blocked; also recorded: fully blocked
Wistar-Han rats
  P wave: 16.3 ± 1.4 ms
  PR: 48.5 ± 3.3 ms
  QRS: 18.2 ± 0.7 ms
  QTc: 45.9 ± 2.2
  RR: 194.7 ± 9.3 ms
  RR interval: increases the RR interval progressively with increasing doses
  T wave area: 1.1 ± 0.1 mV/ms
  arrhythmic rats (rats / all rats): clearly non-arrhythmic
Isolated rat heart
  interbeat interval (bradycardia): small bradycardic effect
  ventricular conduction velocity / activation time: unaffected; also recorded: does not affect ventricular conduction velocity
hNav1.6
  block of AaH-II*-modified hNav1.6 currents: complete block of hNav1.6 currents
[2]
  calcium transient amplitude and time to peak: reduce the amplitude and increase the time to peak of regular calcium transients moderately
  cells presenting SCR events (SCR cells / cells): does not by itself trigger the appearance of SCR events
[3]
  circulating plasmatic concentration: 403 ± 44 nM
[4]
  block of AaH-II* responses: blocked
